Assays:
[1] = system: murine splenocytes (BALB/c and DBA/2 mice); assay: Mixed lymphocyte reaction (MLR), bi-directional, [3H]-thymidine proliferation; assay type: cell-based, murine (BALB/c and DBA/2 mice); conditions: Mus musculus, Splenocyte, 96 hours
Experimental: Mixed lymphocyte reaction (MLR).
Bi-directional MLR was carried out using murine cells. Splenocytes were prepared from BALB/c and DBA/2 mice (18-20 g) Charles River, Calco, Italy). Briefly, single cell suspensions were isolated from spleen by Ficoll-Hypaque (biochrom, Berlin, Germany) density gradient centrifugation. 5×10^4 splenocytes from each preparation was cultured for 96 hours in triplicate in 96-well round-bottom plates (Nunc, Roskilde, Denmark), in the absence or presence of serial dilutions of the tested compounds. All compounds were dissolved in dimethyl sulfoxide (DMSO) to a final 20 mM concentration and then diluted into the culture medium used for the cell assay. To take into account a possible interference from DMSO, each experiment included a control in which the DMSO concentration was made equal to those of compound-treated cultures. Culture medium used was RPMI 1640 (Biochrom, Berlin, Germany), supplemented with 5% foetal bovine serum (Hyclone Laboratories Inc., Logan, Utah), 50 μm 2-mercaptoethanol, 2 mM L-glutamine, 0.1 mM non-essential amino acids, 1 mM sodium pyruvate, 100 IU/ml penicillin, and 100 μg/ml streptomycin. During the last 18 hours of culture, cells were pulsed with 1 μCi of [^3 H]-thymidine (Amersham, UK) and then harvested onto glass fiber filters by means of a cell harvester. Radioacivity, proportional to proliferation, was measured with a β-counter.

[2] = system: CD2; assay: Inhibition of lymphocyte activation antigens expression: CD2 (OKT3-stimulated PBMC, flow cytometry); assay type: cell-based; conditions: human PBMC, 24 hr
Experimental: (§1) Inhibition of lymphocyte activation antigens expression.
(§2) Human peripheral blood mononuclear cells (PBMC) from healthy donors were separated by Ficoll-Hypaque density-gradient centrifugation. The cells recovered were suspended in culture medium (RPMI 1640 supplemented with 10% foetal bovine serum, 2 mM L-glutamine, 100 IU/ml penicillin and 100 μg/ml streptomycin).
(§3) PBMC, suspended at a density of 10^6 cells/ml in culture medium, were incubated in 24-well plates (Costar, Cambridge, Mass.) with the tested compounds and, 30 min later, stimulated with optimal concentration of the monoclonal antibodies OKT3 (Ortho Diagnostic Inc., Raritan, N.J.) for 24 hr at 37° C. and under 5% CO2. At the end of incubation, cells were washed twice with PBS containing 2% human serum (Irvine Scientific, Irvine, Calif.) and then incubated with fluorescein isothiocyanate (FITC)-conjugated monoclonal antibodies (Mab) for 30 min on ice. Cells were then washed as above and fluorescence analysis was performed by flow-cytometry on a FACScan (Becton-Dickinson, Mountain View, Calif.). The Mabs used were anti-Leu5b (CD2), anti-Interleukin-2 receptor (CD25) and anti transferrin receptor (CD71). Fluorescence background was determined by incubating the cells with FITC-conjugated mouse IgG of the relevant isotype. Forward- and right-angle scatter were set in order to include lymphocytes and lymphoblasts. The results, expressed as percentage of inhibition of mean fluorescence (MF), were calculated as follows: [formula]

[3] = system: CD25; assay: Inhibition of lymphocyte activation antigens expression: CD25 (OKT3-stimulated PBMC, flow cytometry); assay type: cell-based; conditions: human PBMC, 24 hr
Experimental: as §1, §2, §3

[4] = system: CD71; assay: Inhibition of lymphocyte activation antigens expression: CD71 (OKT3-stimulated PBMC, flow cytometry); assay type: cell-based; conditions: human PBMC, 24 hr
Experimental: as §1, §2, §3

[5] = system: adjuvant arthritis (complete Freund's adjuvant); assay: Adjuvant arthritis in the rat; assay type: in vivo, rat (male Lewis); conditions: p.o. daily
[6] = system: antigen-induced paw edema (KLH-immunised BALB/c mice); assay: Antigen-induced paw edema in the mouse; assay type: in vivo, mouse (female BALB/c); conditions: daily day 0 to day 13, 8 hours after challenge
Experimental: Antigen-induced paw edema in the mouse.
Groups of 4-8 female BALB/c mice (20-22 g; Charles River, Calco, Italy) were immunised at days 0 and 7 with two s.c. injections, of keyhole limpet hemocyanin (KLH, 100 μg/mouse; Sigma Chemicals, S. Louis, Mo.) emulsified in 0.2 ml complete Freund's adjuvant (CFA, Sigma Chemicals, S. Louis, Mo.). Non-immunised mice (Control) were treated with CFA alone. On day 14, immunised mice were challenged in the hind footpad with 20 μg KLH suspended in physiological solution. Eight hours after antigen challenge the edema was quantified measuring the dorsal-ventral thickness of the footpad with a scientific micrometer (Borletti, Italy). To evaluate their immunosuppressive activity, the compounds were administered daily from day 0 to day 13.

Row | Compound | IC50 [1] [µM] | IC50 [2] [µM] | IC50 [3] [µM] | IC50 [4] [µM] | Inhibition (%) of arthritis score ([5]; Day 14) [%] | Arthritis score ([5]; Day 14, vehicle score 3.6 ± 0.5) | Inhibition (%) of arthritis score ([5]; Day 17) [%] | Arthritis score ([5]; Day 17, vehicle score 4.8 ± 0.4) | Inhibition (%) of arthritis score ([5]; Day 21) [%] | Arthritis score ([5]; Day 21, vehicle score 4.8 ± 0.6) | Percentage of inhibition of edema formation ([6]; 10 mg/Kg i.p.) [%] | Percentage of inhibition of edema formation ([6]; 10 mg/Kg p.o.) [%]
1 | CC(O)=C(C(=O)Nc1ccc(C(F)(F)F)cc1)C(=O)Nc1ccc(C(F)(F)F)cc1 [Example 1, N-(4-trifluoromethylphenyl)-2-(4-trifluoromethylphenylcarbamoyl)-3-hydroxybut-2-enamide] | 11.9 ± 0.1 | 15.3 | 18.4 | 18.8 | – | – | – | – | – | – | – | –
2 | O=C(Nc1ccc(C(F)(F)F)cc1)C1=C(O)COC1=O [Example 2, N-(4-trifluoromethylphenyl)-4-hydroxy-2-oxo-(5H)-furan-3-carboxamide] | 3.4 ± 1.1 | 13.8 | 14.8 | 66.5 | – | – | – | – | – | – | – | –
3 | O=C1CCC(O)=C1C(=O)Nc1ccc(C(F)(F)F)cc1 [Example 3] | 1.25 ± 0.2 | 2.9 | 2.9 | 11 | 42 | 2.1 ± 0.1 | 46 | 2.6 ± 0.1 | 19 | 3.9 ± 0.2 | – | –
4 | O=C1CCCC(O)=C1C(=O)Nc1ccc(C(F)(F)F)cc1 [Example 4] | 45.9 ± 29.5 | 95.4 | > 100 | > 100 | – | – | – | – | – | – | – | –
5 | O=C(Nc1ccc(C(F)(F)F)cc1)c1ccccc1O [Example 5, N-(4-trifluoromethylphenyl)-2-hydroxy-benzamide] | 1.65 ± 0.1 | 3 | 2.4 | 4.4 | – | – | – | – | – | – | 37 | –
6 | Cc1oncc1C(=O)Nc1ccc(C(F)(F)F)cc1 [Leflunomide, 5-methyl-N-(4-trifluoromethylphenyl)isossazole-4-carboxamide] | 9.6 ± 3.1 | 126 | 130 | > 100 | – | – | – | – | – | – | – | 43

Reference: patent US5905090A, “Analogues of the active metabolite of leflunomide” (Italfarmaco S.p.A., priority 1998, dated 1999)
